Assay [1] is described as follows: In vivo testing in rats: growth, feed conversion and carcass composition. Details: species or system rat (male Charles River CD). Conditions: in diet, dose equivalent to 20 ppm clenbuterol (clenbuterol: 10). The source says:
Eighty intact, male Charles River CD rats, 75-90 g, were housed and maintained on rat chow and water ad libitum. After four days acclimation ten rats per group were randomized by weight to treatment and pen. Compounds to be tested were premixed and added to ground rat chow using doses equivalent to 20 ppm of clenbuterol on a molecular weight basis. It had previously been determined 10 ppm of clenbuterol was the minimum dose needed to give maximum improvements in gain and feed conversion. Therefore, the results of any compound tested should cause responses similar to clenbuterol if the compound has half or more the activity of clenbuterol.

The subject of assay [2] is Isolated Chicken Hepatocytes. The assay can be described thus: Inhibition of lipogenesis (14C acetate incorporation) in isolated chicken hepatocytes. The class given is cell-based. Particulars: for inhibition at 0.01 µM / inhibition at 0.05 µM / inhibition at 0.25 µM: Gallus gallus, Hepatocyte, 2 h, read-out: percent change compared to control, 14C acetate incorporation in fatty acids; for percent change compared to control, 14C acetate incorporation in fatty acids: 120 min. The method, then: Determination of anti-lipogenic activity in hepatocytes
Hepatocytes were isolated from chicken liver using the procedure for adipocytes and incubated for 2 hours at 37° C. in the presence of ^14 C acetate and test compounds. […] Isoproterenol, at the same concentrations, was used as a positive control. After incubation, 8 ml Doles reagent (isopropanol:hexane:H2 SO4, 40:10:1) was added and incubation vials were shaken at room temperature for 30 minutes. Vial contents were poured into 50 ml screw-cap tubes. Vials were then rinsed with 6 ml hexane which was poured into the appropriate 50 ml tube. Tubes were shaken by hand, 10 ml H2 O was added, and tubes were shaken again. After phase separation, 2 ml of the upper (hexane) phase was removed to scintillation vials. Hexane was evaporated by a gentle air flow and the remaining lipids were resuspended in 10 ml Scinti Verse II. ^14 C was counted in a Packard liquid scintillation counter. Data are reported as CPM of ^14 C acetate incorporated into total lipids.

In assay [3] the test system is Isolated Swine Adipocytes. The assay can be described thus: Stimulation of lipolysis (glycerol production) in isolated swine adipocytes. The format is cell-based. Particulars: for activation at 0.01 µM / activation at 0.05 µM / activation at 0.25 µM: Sus scrofa, Adipocyte, 2 h, read-out: percent increase compared to control, glycerol production. The method, then:
(§1) Fat was collected from freshly killed animals as follows: epididymal and perirenal fat from 150 to 200 g male rates; perirenal fat from 20 to 25 kg whether lambs, and perirenal and omental fat from 35 to 50 kg gilts. Immediately after collection, fat was placed in a siliconized beaker (all glassware was siliconized) containing Krebs-Ringer bicarbonate solution (KRB; pH 7.4) at 37° C. Fat was transferred to a clean beaker and finely chopped with scissors. Chopped fat was then used as such (whole adipose preparation) or treated with collagenase (isolated adipocytes).
(§2) Chopped fat was placed in a shaker containing 70 ml cell dispersion medium (CDM; 5 mM glucose, 0.1% collagenase, 4% bovine serum albumin (BSA), in KRB) and incubated at 37° C. for 1 hour with gentle shaking. Fat was then filtered to remove clumps and washed 4 times with washing medium (WM; 2.5 mM glucose, 1% BSA, in KRB) and 1 time with final suspension medium (FSM; 2.5 mM glucose, 2% essentially fatty acid free BSA, in KRB). Isolated adipocytes were then resuspended in the required amount of FSM (1 ml/flask, 3 flasks/treatment).
(§3) Whole adipose tissue from the rat (0.3 ml) or isolated adipocytes from sheep or swine (1 ml) were placed in plastic scintillation vials containing FSM (1.7 or 1 ml, respectively) and test compounds, and incubated at 37° C. for 2 hours. […] Isoproterenol, at the same concentrations, was used as a positive control. After incubation, media was removed and assayed for glycerol by a fluorometric modification of the method of Wieland (1974. Glycerol UV-method. pp. 1404. In: Bergmeyer (Ed.) Methods of Enzymatic Analysis. Verlag Chemie Weinham, Academic Press, New York).

In assay [4] the test system is Isolated Ovine Adipocytes. Kind of assay: Stimulation of lipolysis (glycerol production) in isolated ovine adipocytes. The class given is cell-based, sheep. As to the method:
as §1, §2, §3

Another assay has as its system Rat Adipose Tissue. The assay can be described thus: Stimulation of lipolysis (glycerol production) in chopped rat adipose tissue. The class given is cell-based. Conditions: for activation at 0.01 µM / activation at 0.05 µM / activation at 0.25 µM: Rattus norvegicus, 2 h, read-out: percent increase compared to control, glycerol production. The method, then: as §1
Whole adipose tissue from the rat (0.3 ml) or isolated adipocytes from sheep or swine (1 ml) were placed in plastic scintillation vials containing FSM (1.7 or 1 ml, respectively) and test compounds, and incubated at 37° C. for 2 hours. […] Isoproterenol, at the same concentrations, was used as a positive control. After incubation, media was removed and assayed for glycerol by a fluorometric modification of the method of Wieland (1974. Glycerol UV-method. pp. 1404. In: Bergmeyer (Ed.) Methods of Enzymatic Analysis. Verlag Chemie Weinham, Academic Press, New York). […]

The mark [5] stands for this setting: Ovis aries, Adipocyte, 2 h, Test 1, 0.01 μM, read-out: percent increase compared to control, glycerol production.

Read-outs that look alike come from different tables or passages of the source.

For `CC(C)(C)NCC(O)c1ccc(O)c(CO)n1` (stereo not drawn) [VII, Pirbuterol], the Gain in assay [1] (Test 1, control 7.3) was 8.0 g/day. The “Feed Intake” value in assay [1] (Test 1, control 18.6) worked out at 19.8 g/day. In assay [1] (Test 1, control 191.8), the Weight is reported as 200.9 g. For the same molecule, in assay [1] (Test 1), the “Carcass Composition % of Change over Control, Fat” value is -8.7% and the “Carcass Composition % of Change over Control, Protein” value was 3.6%.
Consider `CC(C)(C)NCC(O)c1cc(Br)no1` (stereo not drawn) [II], for which the inhibition at 0.01 µM in assay [2] (Test 1, 0.01 μM) turned out to be 0%. Moreover, the inhibition at 0.05 µM in assay [2] (Test 1, 0.05 μM) turned out to be 0%. For the same molecule, in assay [2] (Test 1, 0.25 μM), the inhibition at 0.25 µM worked out at 7.9%. The activation at 0.01 µM in assay [3] (Test 1, 0.01 μM) is 27%; in the assay on Rat Adipose Tissue (Test 1, 0.01 μM) it was 51%. The activation at 0.05 µM in assay [3] (Test 1, 0.05 μM) is -7%; with Rat Adipose Tissue (Test 1, 0.05 μM), 15%. Besides, the activation at 0.25 µM was -40% in assay [3] (Test 1, 0.25 μM); 325% in assay [4] (Ovis aries, Adipocyte, 2 h, Test 1, 0.25 μM, read-out: percent increase compared to control, glycerol production); 35% with Rat Adipose Tissue (Test 1, 0.25 μM). Also, the “percent increase compared to control, glycerol production” value (“percent increase compared to control” below) in assay [4] (Test 1, 0.05 μM) was “inactive”. Besides, the Gain in assay [1] (Test 2, control 7.5) was 8.4 g/day. For the same molecule, in assay [1] (Test 2, control 19.3), the “Feed Intake” value is 21.1 g/day. Moreover, in assay [1] (Test 2, control 202.3), the Weight was 215.9 g. In addition, the “Carcass Composition % of Change over Control, Fat” value in assay [1] (Test 2) is listed as -9.3%. Also, the “Carcass Composition % of Change over Control, Protein” value in assay [1] (Test 2) is 3.8%.
For `CC(C)N[C@H]1CCc2c(ccc(O)c2CO)[C@@H]1O.Cl` [VIII], the “percent change compared to control, 14C acetate incorporation in fatty acids” value is reported as 26% in assay [2] (Test 2, 0.01 μM); -9% in assay [2] (Test 2, 0.05 μM); -34% in assay [2] (Test 2, 0.25 μM). Moreover, the “percent increase compared to control” value in assay [3] (Test 1, 0.01 μM) was 13%; in assay [3] (Test 1, 0.05 μM), 147%; in assay [3] (Test 1, 0.25 μM), 180%; in assay [3] (Test 2, 0.01 μM), 61%; in assay [3] (Test 2, 0.05 μM), 59%; in assay [3] (Test 2, 0.25 μM), 460%. The “percent increase compared to control” value is recorded as 135% in assay [4] (Test 1, 0.01 μM); 445% in assay [4] (Test 1, 0.05 μM); 565% in assay [4] (Test 1, 0.25 μM); 71% in assay [4] (Test 2, 0.01 μM); 1143% in assay [4] (Test 2, 0.05 μM); 1800% in assay [4] (Test 2, 0.25 μM). Moreover, the “percent increase compared to control” value was 19% in the assay with Rat Adipose Tissue (Test 1, 0.01 μM); 26% with Rat Adipose Tissue (Test 1, 0.05 μM); 21% with Rat Adipose Tissue (Test 1, 0.25 μM); -7% with Rat Adipose Tissue (Test 2, 0.01 μM); 4% in the assay on Rat Adipose Tissue (Test 2, 0.05 μM); 7% with Rat Adipose Tissue (Test 2, 0.25 μM). Moreover, the “Feed Conversion” value in assay [1] (Test 1, control 2.55) is recorded as 2.41. For the same molecule, the Gain in assay [1] (Test 1, control 7.3) is on record as 8.1 g/day. The “Feed Intake” value in assay [1] (Test 1, control 18.6) is recorded as 19.5 g/day. Also, the Weight in assay [1] (Test 1, control 191.8) stood at 202.6 g. Besides, the “Carcass Composition % of Change over Control, Fat” value in assay [1] (Test 1) is -6.1%. The “Carcass Composition % of Change over Control, Protein” value in assay [1] (Test 1) was determined as 6.4%.
Turning to `CC(C)NCC(O)c1ccc(O)c(O)c1` (stereo not drawn) [Isoproterenol], the inhibition at 0.01 µM is 29.1% in assay [2] (Test 1, 0.01 μM) and 21% in assay [2] (Test 2, 0.01 μM). Moreover, the inhibition at 0.05 µM in assay [2] (Test 1, 0.05 μM) is 48.6%; in assay [2] (Test 2, 0.05 μM), 15%. Besides, the inhibition at 0.25 µM was found to be 70.3% in assay [2] (Test 1, 0.25 μM) and 49% in assay [2] (Test 2, 0.25 μM). The activation at 0.01 µM in assay [3] (Test 1, 0.01 μM) amounted to 40%; in assay [3] (Test 2, 0.01 μM), 175%; in assay [4] (setting [5]), 670%; in assay [4] (Ovis aries, Adipocyte, 2 h, Test 2, 0.01 μM, read-out: percent increase compared to control, glycerol production), 600%; in the assay on Rat Adipose Tissue (Test 1, 0.01 μM), 45%; in the assay on Rat Adipose Tissue (Test 2, 0.01 μM), 49%. Moreover, the activation at 0.05 µM was 140% in assay [3] (Test 1, 0.05 μM); 196% in assay [3] (Test 2, 0.05 μM); 173% in the assay on Rat Adipose Tissue (Test 1, 0.05 μM); 154% in the assay on Rat Adipose Tissue (Test 2, 0.05 μM). Also, the activation at 0.25 µM in assay [3] (Test 1, 0.25 μM) is 660%; in assay [3] (Test 2, 0.25 μM) it was 820%; with Rat Adipose Tissue (Test 1, 0.25 μM) it was 290%; with Rat Adipose Tissue (Test 2, 0.25 μM) it was 216%.
With `COc1ccc(CNc2cc(C(O)CNC(C)(C)C)ccc2O)cc1` (stereo not drawn) [III], in assay [2] (Test 1, 0.01 μM), the inhibition at 0.01 µM was found to be 9.5%. The inhibition at 0.05 µM in assay [2] (Test 1, 0.05 μM) worked out at 35.5%. Moreover, the inhibition at 0.25 µM in assay [2] (Test 1, 0.25 μM) worked out at 54.4%. Moreover, the activation at 0.01 µM in assay [3] (Test 1, 0.01 μM) worked out at 20%; in assay [4] (setting [5]) it was 465%; in the assay with Rat Adipose Tissue (Test 1, 0.01 μM), 194%. Moreover, the activation at 0.05 µM in assay [3] (Test 1, 0.05 μM) is 33%; in assay [4] (Ovis aries, Adipocyte, 2 h, Test 1, 0.05 μM, read-out: percent increase compared to control, glycerol production), 845%; with Rat Adipose Tissue (Test 1, 0.05 μM), 203%. For the same molecule, the activation at 0.25 µM in assay [3] (Test 1, 0.25 μM) is 53%; in the assay with Rat Adipose Tissue (Test 1, 0.25 μM), 334%. For the same molecule, the Gain in assay [1] (Test 1, control 7.3) stood at 8.0 g/day. In addition, the “Feed Intake” value in assay [1] (Test 1, control 18.6) is listed as 19.4 g/day. Also, in assay [1] (Test 1, control 191.8), the Weight is reported as 201.7 g. For the same molecule, the “Carcass Composition % of Change over Control, Fat” value in assay [1] (Test 1) is recorded as -7.0%. Besides, the “Carcass Composition % of Change over Control, Protein” value in assay [1] (Test 1) was 6.1%.

These data come from patent publication US4847302A, “Use of certain compounds in livestock food as growth promotants for better feed utilization and improved carcass composition” (Merck & Co., Inc., priority 1988, dated 1989).
